Assay results reported in US10933141B2, “Formulations with reduced degradation of polysorbate” (Genentech, Inc., priority 2015, dated 2021).
Entries after “also recorded” stand apart in the source; their conditions may differ.

Key:
[1] = molecular target: T1, Candida Antarctica Lipase B (CALB) (Moesziomyces antarcticus, UniProt P41365); experiment: Enzymatic degradation of PS20 by CALB, PS20 by RP-ELSD; assay type: biochemical; settings: for PS20 degradation (in words): 15% (w/v) excipient
T1 construct: purchased Sigma Aldrich Inc. (St. Louis, Mo.)
Experimental: Polysorbate concentration was determined using reverse phase ultra-performance liquid chromatography using evaporative light scattering detection (RP-ELSD). Samples were analyzed using an Agilent 1100 series high performance liquid chromatography system (HPLC) fitted with a Waters Oasis MAX cartridge column (20×2.1 mm, 30 μm particle size). The HPLC system was set up with a switching valve directing column flow-through to either waste or a Varian 380-LC evaporative light scattering detector set to 100° C. The mobile phases consisted of 2% formic acid in water (Pump A) and 2% formic acid in isopropanol (Pump B). The pump gradient was isocratic at 10% pump B during equilibration, linear to 20% pump B for 1 minute, isocratic at 20% pump B for 2.4 minutes, linear to 100% pump B for 0.1 minutes, isocratic at 100% pump B for 1.1 minutes, linear to 10% pump B for 0.1 minutes, and finally isocratic at 10% pump B for 1.9 minutes. The switching valve directed column flow-through to waste at the beginning of every injection, and then directed flow to the detector after 2.4 minutes until the end of the gradient. In order to quantitate the PS20 concentration, a standard curve was generated by injecting 20 μL of solutions containing between 0% w/v and 0.4% w/v PS20. For excipients which affected the migration time of PS20 through the column, PS20 standard curve solutions containing the relevant excipient were included in the analysis to facilitate accurate quantitation.
[…] Samples of 0.02% PS20 in pH 5.5 buffer containing either no additional excipient, 15% Sucrose, […] the enzymes porcine pancreatic lipase (PPL), lipoprotein lipase (LPL), Candida Antarctica lipase (CALB) and rabbit liver esterase (RLE) at room temperature. PPL samples were digested with 15 μg/mL enzyme for 4.5 hours. LPL samples were digested with 70 μg/mL enzyme for 5 hours. CALB samples were digested with 0.1 mg/mL immobilized enzyme for 1 hour. RLE samples were digested with 15 μg/mL enzyme for 5 hours. All digestions were conducted at room temperature.
PPL digestion was stopped by heat inactivation in an 85° C. water bath for 30 minutes. LPL and RLE digestion could not be stopped by heat inactivation, so the samples were analyzed immediately for PS20 content. CALB digestion was stopped by filtering out the immobilized enzyme beads. In order to permit particle formation, CALB samples were placed at 5° C. overnight. RLE and LPL samples were frozen at −20° C. overnight to impede enzymatic activity and were then thawed over ice immediately prior to particle analysis.
As described above, all samples were analyzed for PS20 content by high performance liquid chromatography (Agilent 1100 series) with an inline evaporative light scattering detector (Varian 380-LC series). Visible particle inspection was conducted on a Seidenader visual inspection instrument. Subvisible particle analysis was conducted on a HIAC 9703 particle counter.

[2] = Solubilization of existing visible and subvisible particles from enzymatic PS20 degradation (HIAC, Seidenader); assay type: physicochemical; settings: for amount of SVP after excipient spiked into degraded PS20 solution: 0.05% PS20 degraded with 37.5 μg/mL PPL, 35.5 mM HP-α-CD or HP-γ-CD, 0.5-15% HP-β-CD, 5° C. overnight, HIAC
Experimental: Subvisible particles were measured using a HIAC 9703 particle counter equipped with an HRDL-150 detector and a 1 mL syringe. Performance of the instrument was verified with NIST-traceable 2 μm Polystyrene bead standards at 3000 counts/mL before each measurement session. The HIAC instrument was configured to a 10 mL/min flow rate, 0.1 mL tare volume, and 0.4 mL sample volume. The samples were analyzed using 4 runs of 0.4 mL sips, with the first run of each sample was discarded to prevent measurement error due to sample carryover. Results were reported as the average values for 1.4, 2, 5, 10, 15, and 25, 50 μm analysis filter sizes.
Vials were inspected for visible particulates using a Seidenader V90-T visual inspection unit (Markt Schwaben, Germany) with vial carriage tilted to 60 degrees. Visible particle inspection of samples was performed by placing the glass vials in the holder and rotating in the presence of a Tyndall light directed through the bottom of the vial. Pre-rotation (i.e., fast rotation) was first performed to agitate the liquids, suspend, and circulate particles. Following rotation and illumination, the particles are in motion and the light causes reflections of the particles that make them visible (i.e., Tyndall effect). Visible particles were then observed using a magnifying lens. Videos and photographs of visible particles were obtained using a Samsung (seoul, South Korea) Galaxy device.
Several excipients were tested for their ability to solubilize particles produced as a result of enzymatic PS20 degradation. Solutions of concentrated HP-α-CD, HP-β-CD, HP-γ-CD, SBE-β-CD, PVP, PEG 1500, sucrose, and methionine were prepared in triplicate in pH 5.5 buffer. Particles from enzymatic PS20 degradation were prepared. Three solutions of 0.05% PS20 in pH 5.5 buffer were enzymatically degraded with 37.5 μg/mL PPL for 4.5 hours at room temperature, followed by 30 minutes of heat inactivation at 85° C. The degraded PS20 solutions were placed at 5° C. to allow for crystallization of particles.
After particle formation in the degraded PS20 solutions, the remaining sample preparation was conducted in a 5° C. cold room to prevent the PS20 derived particles from dissolving. Each degraded PS20 solution was divided into 11 aliquots and concentrated excipient was spiked into each the aliquots. The final concentration of excipient in each sample was as follows: 5% sucrose, 10 mg/mL methionine, 5% PVP, 5% PEG 1500, 15% HP-β-CD, 5% HP-β-CD, 0.5% HP-β-CD, 35.5 mM HP-α-CD, 35.5 mM HP-γ-CD, and 35.5 mM SBE-β-CD. After the addition of each excipient, samples were left at 5° C. overnight. The following day, vials were inspected for visible particles under a Seidenader visual inspection instrument. Subvisible particle counts were measured using a HIAC 9703 particle counter.

[3] = 0.02 (w/v) PS20, CALB digestion (FIG. 9)

T1 sequence (P41365 26-342): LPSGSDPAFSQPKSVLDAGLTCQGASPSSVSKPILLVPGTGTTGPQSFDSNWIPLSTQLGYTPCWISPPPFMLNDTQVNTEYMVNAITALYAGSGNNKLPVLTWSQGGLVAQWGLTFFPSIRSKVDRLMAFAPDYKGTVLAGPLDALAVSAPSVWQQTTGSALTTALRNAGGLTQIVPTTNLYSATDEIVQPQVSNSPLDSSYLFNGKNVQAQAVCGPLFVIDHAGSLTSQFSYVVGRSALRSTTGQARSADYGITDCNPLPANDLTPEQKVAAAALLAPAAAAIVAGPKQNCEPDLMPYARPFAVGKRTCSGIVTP

Row | Compound | PS20 degradation (in words) [1, 3] | amount of SVP after excipient spiked into degraded PS20 solution [2] | visible particles after spiking excipient ([2]; 15% (w/v) HP-β-CD, PS20 particles from PPL digestion) | Polysorbate 20 (Relative %) ([1]; 15% w/v HP-β-CD, 0.02% PS20, pH 5.5, 0.1 mg/mL immobilized CALB, 1 hour, room temperature) | PS20 degradation ([1]; 15% HP-γ-CD, 0.02 (w/v) PS20, CALB digestion (FIG. 9))
1 | OC[C@H]1O[C@@](CO)(O[C@H]2O[C@H](CO)[C@@H](O)[C@H](O)[C@H]2O)[C@@H](O)[C@@H]1O [sucrose, reference compound] | significant decreases in PS20 concentration | – | – | – | –
2 | 2-hydroxypropyl-β-cyclodextrin [HP-β-CD] | no significant PS20 degradation | significantly reduce the amount of SVP | immediate solubilization of visible particles; also recorded: no visible particles | 85.7% | –
3 | 2-hydroxypropyl-γ-cyclodextrin [HP-γ-CD] | – | significantly reduce the amount of SVP | – | – | ~82%
4 | 2-hydroxypropyl-α-cyclodextrin [HP-α-CD] | no significant PS20 degradation | significantly reduce the amount of SVP | – | – | –
